Assay results published in patent US9181218B2, “Compounds for improved stem cell differentiation into hepatocytes” (Hoffmann-La Roche Inc., priority 2013, dated 2015).

Test system: interferon-stimulated genes (ISGs)
Experiment: Microarray analysis of iCell Hepatocytes treated with the compound of example 1
Assay type: cell-based, Human
Description: iCell Hepatocytes treated with the compound of example 1 results in the up and down-regulation of a host of genes; including a kinetic effect on interferon-stimulated gene (ISGs) expression. See FIGS. 15-I and 15-II, 16-I and 16-II and 18 and Table 1.

O=C(NCc1cccc(F)c1)c1cccc2nc(-c3c(NC[C@@H](O)c4ccccc4)cc[nH]c3=O)[nH]c12 [Example 1, 2-[4-((S)-2-hydroxy-2-phenyl-ethylamino)-2-oxo-1,2-dihydro-pyridin-3-yl]-3H-benzoimidazole-4-carboxylic acid 3-fluoro-benzylamide]
ADAM19 Raw Est Fold Change (2 HOUR): 2.77
AES Raw Est Fold Change (2 HOUR): 2.07
AKT3 Raw Est Fold Change (2 HOUR): −1.76
ASNS Raw Est Fold Change (2 HOUR): 1.80
BCL3 Raw Est Fold Change (2 HOUR): −1.44
BUB1 Raw Est Fold Change (2 HOUR): −20.72
C10orf10 Raw Est Fold Change (2 HOUR): −3.72
CD80 Raw Est Fold Change (2 HOUR): −13.65
CD300LF Raw Est Fold Change (2 HOUR): 5.42
CEBPD Raw Est Fold Change (2 HOUR): −1.29
CSNK1D Raw Est Fold Change (2 HOUR): 1.10
DDIT4 Raw Est Fold Change (2 HOUR): 2.67
DRAP1 Raw Est Fold Change (2 HOUR): 1.17
EFNB2 Raw Est Fold Change (2 HOUR): −1.63
EHHADH Raw Est Fold Change (2 HOUR): −1.16
EPAS1 Raw Est Fold Change (2 HOUR): −2.61
ETV7 Raw Est Fold Change (2 HOUR): −2.54
FGF2 Raw Est Fold Change (2 HOUR): −1.76
GOLGA3 Raw Est Fold Change (2 HOUR): 1.45
GTPBP2 Raw Est Fold Change (2 HOUR): −1.29
HLA-C Raw Est Fold Change (2 HOUR): −4.87
ISGF3G Raw Est Fold Change (2 HOUR): −1.17
JAK1 Raw Est Fold Change (2 HOUR): −5.55
JUNB Raw Est Fold Change (2 HOUR): −6.01
KAL1 Raw Est Fold Change (2 HOUR): −2.61
KPNB1 Raw Est Fold Change (2 HOUR): 1.14
MAX Raw Est Fold Change (2 HOUR): 3.74
MPO Raw Est Fold Change (2 HOUR): −3.18
PCMT1 Raw Est Fold Change (2 HOUR): −1.10
PHF11 Raw Est Fold Change (2 HOUR): −1.80
PHF15 Raw Est Fold Change (2 HOUR): 1.74
PI4K2B Raw Est Fold Change (2 HOUR): −1.08
PIM3 Raw Est Fold Change (2 HOUR): −1.19
PXK Raw Est Fold Change (2 HOUR): 1.17
RHOH Raw Est Fold Change (2 HOUR): −14.71
SCARB2 Raw Est Fold Change (2 HOUR): 1.50
SOCS1 Raw Est Fold Change (2 HOUR): −4.13
SOCS3 Raw Est Fold Change (2 HOUR): −9.95
TXNIP Raw Est Fold Change (2 HOUR): −2.04
ABHD5 Raw Est Fold Change (24 HOUR): −1.43
ADM Raw Est Fold Change (24 HOUR): −1.81
AKAP12 Raw Est Fold Change (24 HOUR): 3.33
ALCAM Raw Est Fold Change (24 HOUR): −1.24
AMPH Raw Est Fold Change (24 HOUR): −3.29
ARHGDIB Raw Est Fold Change (24 HOUR): −1.72
ARHGEF3 Raw Est Fold Change (24 HOUR): −1.32
ATF3 Raw Est Fold Change (24 HOUR): −3.06
AXL Raw Est Fold Change (24 HOUR): −6.82
B4GALT5 Raw Est Fold Change (24 HOUR): −1.87
BAG1 Raw Est Fold Change (24 HOUR): 1.26
BCL3 Raw Est Fold Change (24 HOUR): −3.11
BHMT Raw Est Fold Change (24 HOUR): 5.84
BLZF1 Raw Est Fold Change (24 HOUR): −1.26
BST2 Raw Est Fold Change (24 HOUR): −1.70
BTG1 Raw Est Fold Change (24 HOUR): −1.16
BUB1 Raw Est Fold Change (24 HOUR): −33.18
C1S Raw Est Fold Change (24 HOUR): −1.62
C4orf32 Raw Est Fold Change (24 HOUR): −7.20
C4orf33 Raw Est Fold Change (24 HOUR): 3.95
C10orf10 Raw Est Fold Change (24 HOUR): −2.71
CASP4 Raw Est Fold Change (24 HOUR): −5.09
CASP5 Raw Est Fold Change (24 HOUR): −3.00
CCND3 Raw Est Fold Change (24 HOUR): −1.81
CD38 Raw Est Fold Change (24 HOUR): −10.02
CD47 Raw Est Fold Change (24 HOUR): −1.52
CEBPD Raw Est Fold Change (24 HOUR): −2.58
CHD6 Raw Est Fold Change (24 HOUR): 1.16
CHST12 Raw Est Fold Change (24 HOUR): −1.21
CLCN6 Raw Est Fold Change (24 HOUR): −1.26
CREB3L3 Raw Est Fold Change (24 HOUR): −3.22
CRYM Raw Est Fold Change (24 HOUR): 2.03
CSDA Raw Est Fold Change (24 HOUR): −2.38
CTSL Raw Est Fold Change (24 HOUR): −1.28
CX3CL1 Raw Est Fold Change (24 HOUR): 2.73
CXCL10 Raw Est Fold Change (24 HOUR): 1.71
CYBA Raw Est Fold Change (24 HOUR): −1.64
CYP1B1 Raw Est Fold Change (24 HOUR): −2.71
DDX17 Raw Est Fold Change (24 HOUR): −1.56
DNAPTP6 Raw Est Fold Change (24 HOUR): 1.34
DRAP1 Raw Est Fold Change (24 HOUR): 1.29
EFNB2 Raw Est Fold Change (24 HOUR): −1.46
EGR1 Raw Est Fold Change (24 HOUR): −2.86
EHHADH Raw Est Fold Change (24 HOUR): 1.80
EMP1 Raw Est Fold Change (24 HOUR): −5.94
EPAS1 Raw Est Fold Change (24 HOUR): −2.84
ETS2 Raw Est Fold Change (24 HOUR): −1.73
ETV6 Raw Est Fold Change (24 HOUR): −1.37
ETV7 Raw Est Fold Change (24 HOUR): −3.88
FAM125B Raw Est Fold Change (24 HOUR): −1.54
FBXO6 Raw Est Fold Change (24 HOUR): 3.00
FFAR2 Raw Est Fold Change (24 HOUR): −7.50
FKBP1B Raw Est Fold Change (24 HOUR): −1.90
FKBP5 Raw Est Fold Change (24 HOUR): −1.39
FLT1 Raw Est Fold Change (24 HOUR): −1.75
FNDC3B Raw Est Fold Change (24 HOUR): −1.67
FNDC4 Raw Est Fold Change (24 HOUR): −1.59
FUBP1 Raw Est Fold Change (24 HOUR): −1.50
FUT4 Raw Est Fold Change (24 HOUR): −1.89
G6PC Raw Est Fold Change (24 HOUR): 4.22
GALNT2 Raw Est Fold Change (24 HOUR): −5.18
GBP2 Raw Est Fold Change (24 HOUR): −1.83
GBP4 Raw Est Fold Change (24 HOUR): −3.07
GCH1 Raw Est Fold Change (24 HOUR): 1.17
GK Raw Est Fold Change (24 HOUR): −2.50
GLUL Raw Est Fold Change (24 HOUR): 1.13
GNAI1 Raw Est Fold Change (24 HOUR): 1.43
GOLGA3 Raw Est Fold Change (24 HOUR): −1.24
GTF2F1 Raw Est Fold Change (24 HOUR): 1.28
GTPBP1 Raw Est Fold Change (24 HOUR): −1.24
HEG1 Raw Est Fold Change (24 HOUR): −3.64
HIF1A Raw Est Fold Change (24 HOUR): −1.47
HK2 Raw Est Fold Change (24 HOUR): −1.88
HLA-DPA1 Raw Est Fold Change (24 HOUR): −2.10
HLA-DPB1 Raw Est Fold Change (24 HOUR): −2.11
ICAM1 Raw Est Fold Change (24 HOUR): −6.60
IER3 Raw Est Fold Change (24 HOUR): −2.60
IFI16 Raw Est Fold Change (24 HOUR): −6.86
IFI27 Raw Est Fold Change (24 HOUR): −1.56
IFIT1 Raw Est Fold Change (24 HOUR): 3.58
IFIT3 Raw Est Fold Change (24 HOUR): 1.88
IFITM1 Raw Est Fold Change (24 HOUR): −3.11
